Consider 4 molecules from article doi:10.1101/2022.02.09.479090v1 (biorxiv, 2022).

Read-outs that look alike come from different tables or passages of the source.

As a reminder, the Kd is a measure of binding affinity in units of concentration. Usually Ki stands for the equilibrium dissociation constant of an inhibitor or competing ligand from its target. Higher therefore signals a looser hold on the target. Broadly, the Km is the concentration of substrate that gives half-maximal velocity.

Data set [1] deals with AncFT. The experiment in a line: anaerobic fluorescence titration. On the set-up: species or system synthetic construct. To be noted: 100 mM potassium phosphate pH 7.5, 30 °C.
Data set [2] addresses T1, RLuc8 (Renilla reniformis, UniProt P27652, A143M/A55T/C124A/K136R/M185V/M253L/S130A/S287L). The experiment in a line: biochemical.
In data set [3] the target is AncFT. Nature of the data set: luminescence progress curves, global numerical fit. Type of data set: biochemical, synthetic construct. As to conditions: competitive versus coelenterazine; 100 mM phosphate pH 7.5, 37 °C.
For data set [4], the target named is T1, RLuc8. Nature of the data set: biochemical. This is another data set of the same source.
Data set [5] deals with AncFT. Nature of the data set: anaerobic fluorescence titration. As to conditions: 100 mM potassium phosphate pH 7.5, 30 °C. On the set-up: species or system synthetic construct. This is another data set of the same source.
The target in data set [6] is T1, RLuc8. Nature of the data set: biochemical. This is another data set of the same source.
For data set [7], the system named is AncFT. The experiment in a line: luminescence progress curves, global numerical fit. In kind it is biochemical, synthetic construct. To be noted: O2 co-substrate; 100 mM phosphate pH 7.5, 37 °C.
Substrate in data set [8]: Oc1ccc(Cc2nc3c(Cc4ccccc4)nc(-c4ccc(O)cc4)cn3c2O)cc1
The experiment in a line: purified protein. As to conditions: O2 co-substrate, 100 mM phosphate pH 7.5, 37 °C.

With `O=C(Cc1ccc(O)cc1)Nc1ncc(-c2ccc(O)cc2)nc1Cc1ccccc1` [CEI, coelenteramide], the figures for the Kd in data set [1] and in data set [2] were 16 ± 2 µM and 22 ± 2 µM, respectively.

Take `O=c1n(Cc2ccc(O)cc2)nc2c(Cc3ccccc3)nc(-c3ccc(O)cc3)cn12` [azaCTZ, 8-Benzyl-2-(4-hydroxybenzyl)-6-(4-hydroxyphenyl)-[1,2,4]triazolo[4,3-a]pyrazin-3(2H)-one]: the Ki in data set [3] stood at 0.092 ± 0.002 µM; in data set [4], 16.1 µM.

Take `Oc1ccc(Cc2nc3c(Cc4ccccc4)nc(-c4ccc(O)cc4)cn3c2O)cc1` [CTZ, 2-(p-hydroxybenzyl)-6-(p-hydroxyphenyl)-8-benzylimidazo [1,2-a]pyrazine-3-(7H)-one]: the Kd was 12 ± 5 µM in data set [5] and 37 ± 15 µM in data set [6]. For the same molecule, the Km in data set [7] stood at 0.042 µM.

B1: RLuc8 (Renilla reniformis; A143M/A55T/C124A/K136R/M185V/M253L/S130A/S287L) (protein)
chain: MTSKVYDPEQRKRMITGPQWWARCKQMNVLDSFINYYDSEKHAENAVIFLHGNATSSYLWRHVVPHIEPVARCIIPDLIGMGKSGKSGNGSYRLLDHYKYLTAWFELLNLPKKIIFVGHDWGAALAFHYAYEHQDRIKAIVHMESVVDVIESWDEWPDIEEDIALIKSEEGEKMVLENNFFVETVLPSKIMRKLEPEEFAAYLEPFKEKGEVRRPTLSWPREIPLVKGGKPDVVQIVRNYNAYLRASDDLPKLFIESDPGFFSNAIVEGAKKFPNTEFVKVKGLHFLQEDAPDEMGKYIKSFVERVLKNEQ
Turning to B1, in data set [8], the Km was determined as 1.66 µM.
